One test has as its system DIGSA. In words: greenhouse post-emergence herbicidal activity. Format: in vivo, Digitaria sanguinales. The following applies: scale 0 to 100. The source says: (§1) The culture containers used were plastic flowerpots containing loamy sand with approximately 3.0% of humus as the substrate. The seeds of the test plants were sown separately for each species.
(§2) For the post-emergence treatment, the test plants were first grown to a height of 3 to 15 cm, depending on the plant habit, and only then treated with the active ingredients which had been suspended or emulsified in water. For this purpose, the test plants were either sown directly and grown in the same containers, or they were first grown separately as seedlings and transplanted into the test containers a few days prior to treatment.
(§3) Depending on the species, the plants were kept at 10-25° C. or 20-35° C. The test period extended over 2 to 4 weeks. During this time, the plants were tended, and their response to the individual treatments was evaluated.
(§4) Evaluation was carried out using a scale from 0 to 100. 100 means no emergence of the plants, or complete destruction of at least the aerial moieties, and 0 means no damage, or normal course of growth. A good herbicidal activity is given at values of at least 70 and a very good herbicidal activity is given at values of at least 85.

Another test relates to BRAPL. Description: greenhouse post-emergence herbicidal activity. It is filed as in vivo, Brachiaria plantaginea. The following applies: scale 0 to 100.
Excerpt: as §1, §2, §3, §4

Test [1] concerns SETVI. Description: greenhouse post-emergence herbicidal activity. It is filed as in vivo, Setaria viridis. The following applies: scale 0 to 100.
Excerpt: as §1, §2, §3, §4

The next test concerns SETFA. In words: greenhouse post-emergence herbicidal activity. Format: in vivo, Setaria faberi. The following applies: scale 0 to 100.
Excerpt: as §1, §2, §3, §4

The subject of another test is ABUTH. Description: greenhouse pre-emergence herbicidal activity. It is filed as in vivo, Abutilon theophrasti. The following applies: scale 0 to 100.
Excerpt: as §1
(§5) For the pre-emergence treatment, the active ingredients, which had been suspended or emulsified in water, were applied directly after sowing by means of finely distributing nozzles. The containers were irrigated gently to promote germination and growth and subsequently covered with transparent plastic hoods until the plants had rooted. This cover caused uniform germination of the test plants, unless this has been impaired by the active ingredients.
as §3, §4

The subject of a further test is PANDI. In words: greenhouse pre-emergence herbicidal activity. Format: in vivo, Panicum dichotomiflorun. The following applies: scale 0 to 100.
Excerpt: as §1, §5, §3, §4

Another test relates to ECHCG. In words: greenhouse post-emergence herbicidal activity. It is filed as in vivo, Echinocloa crus-galli. The following applies: scale 0 to 100.
Excerpt: as §1, §2, §3, §4

The next test deals with STEME. In words: greenhouse pre-emergence herbicidal activity. Format: in vivo, Stellaria media. The following applies: scale 0 to 100.
Excerpt: as §1, §5, §3, §4

The test system of test [2] is SETVI. Description: greenhouse pre-emergence herbicidal activity. It is filed as in vivo, Setaria viridis. The following applies: scale 0 to 100.
Excerpt: as §1, §5, §3, §4

The test system of the next test is LAMAM. Description: greenhouse pre-emergence herbicidal activity. It is filed as in vivo, Lamium amplexicaule. The following applies: scale 0 to 100.
Excerpt: as §1, §5, §3, §4

A further test deals with Abutilon theophrasti. Description: greenhouse post-emergence herbicidal activity. Format: in vivo. The following applies: 6.25 g/ha, post-emergence method.
Excerpt: as §1, §2, §3, §4

The test system of a further test is Ambrosia elatior. Description: greenhouse post-emergence herbicidal activity. Format: in vivo. The following applies: 6.25 g/ha, post-emergence method.
Excerpt: as §1, §2, §3, §4

The test system of the next test is Pharbitis purpurea. Description: greenhouse post-emergence herbicidal activity. It is filed as in vivo. The following applies: 6.25 g/ha, post-emergence method.
Excerpt: as §1, §2, §3, §4

The test system of another test is Chenopodium album. Description: greenhouse post-emergence herbicidal activity. Format: in vivo. The following applies: 6.25 g/ha, post-emergence method.
Excerpt: as §1, §2, §3, §4

For the next test, the system named is Amaranthus retroflexus. In words: greenhouse pre-emergence herbicidal activity. Format: in vivo. The following applies: 6.25 g/ha, pre-emergence method.
Excerpt: as §1, §5, §3, §4

Another test concerns Erigeron canadensis. Description: greenhouse pre-emergence herbicidal activity. Format: in vivo. The following applies: 6.25 g/ha, pre-emergence method.
Excerpt: as §1, §5, §3, §4

In the case of `Cc1cnc(C2=NC(=O)C(C)(C(C)C)N2)c(C(=O)O)c1` (stereo not drawn) [B.30, imazapic, reference compound], the “herbicidal activity against DIGSA found” value in the test with DIGSA (B.30 10 g/ha a.s.) was 85. Further, the “herbicidal activity against BRAPL found” value in the test with BRAPL (B.30 10 g/ha a.s.) worked out at 70.
Regarding `CC(C)N(C)S(=O)(=O)NC(=O)c1cc(-n2c(=O)cc(C(F)(F)F)n(C)c2=O)c(F)cc1Cl` [B.76, saflufenacil, reference compound], the “herbicidal activity against SETVI found” value in the test with SETVI [1] (B.76 12.5 g/ha a.s.) was determined as 40. Moreover, the “herbicidal activity against SETFA found” value in the test with SETFA (B.76 12.5 g/ha a.s.) is on record as 30. For the same compound, the “herbicidal activity against ABUTH found” value with ABUTH (B.76 6.25 g/ha a.s.) is recorded as 75. In addition, the “herbicidal activity against PANDI found” value with PANDI (B.76 6.25 g/ha a.s.) turned out to be 55.
Turning to `CC(C)N.O=C(O)CNCP(=O)(O)O` [B.97, glyphosate-isopropylammonium, reference compound], in the test with ECHCG (B.97 135 g/ha a.s.), the “herbicidal activity against ECHCG found” value is recorded as 85.
For the compound `CCC(CC)Nc1c([N+](=O)[O-])cc(C)c(C)c1[N+](=O)[O-]` [B.102, pendimethalin, reference compound], the “herbicidal activity against STEME found” value with STEME (B.102 400 g/ha a.s.) is 75.
For the compound `COC[C@H](C)N(C(=O)CCl)c1c(C)csc1C` [B.107, dimethenamid-P, reference compound], the “herbicidal activity against SETVI found” value in the test with SETVI [2] (B.107 15 g/ha a.s.) came to 70. Also, in the test with PANDI (B.107 15 g/ha a.s.), the “herbicidal activity against PANDI found” value worked out at 95.
Turning to `Cn1nc(C(F)(F)F)c(CS(=O)(=O)C2=NOC(C)(C)C2)c1OC(F)F` [B.117, pyroxasulfone, reference compound], the “herbicidal activity against STEME found” value in the test on STEME (B.117 6.25 g/ha a.s.) came to 60. The “herbicidal activity against LAMAM found” value with LAMAM (B.117 6.25 g/ha a.s.) is listed as 35.
Regarding `C#CCN1C(=O)C(F)(F)Oc2cc(F)c(N3C(=O)C4=C(CCCC4)C3=O)cc21` [Ia18, 2-(2,2,7-Trifluoro-3-oxo-4-prop-2-ynyl-3,4-dihydro-2H-benzo[1,4]oxazin-6-yl)-4,5,6,7-tetrahydro-isoindole-1,3-dione], the “herbicidal activity against Abutilon theophrasti” value in the test on Abutilon theophrasti is “very good herbicidal activity (a very good herbicidal activity is given at values of at least 85)”. The “herbicidal activity against Ambrosia elatior” value with Ambrosia elatior was “very good herbicidal activity (a very good herbicidal activity is given at values of at least 85)”. In addition, the “herbicidal activity against Pharbitis purpurea” value in the test with Pharbitis purpurea is listed as “very good herbicidal activity (a very good herbicidal activity is given at values of at least 85)”. The “herbicidal activity against Chenopodium album” value in the test on Chenopodium album is listed as “very good herbicidal activity (a very good herbicidal activity is given at values of at least 85)”. Moreover, the “herbicidal activity against SETVI found” value is given as 55 in the test on SETVI [1] (Ia18 6.25 g/ha a.s.) and 90 in the test on SETVI [2] (Ia18 25 g/ha a.s.). Besides, the “herbicidal activity against STEME found” value in the test with STEME (Ia18 12.5 g/ha a.s.) and in the test with STEME (Ia18 13 g/ha a.s.) was 65 each time. In the test on Amaranthus retroflexus, the “herbicidal activity against Amaranthus retroflexus” value was “very good herbicidal activity (a very good herbicidal activity is given at values of at least 85)”. The “herbicidal activity against Erigeron canadensis” value in the test on Erigeron canadensis is “very good herbicidal activity (a very good herbicidal activity is given at values of at least 85)”. Moreover, the “herbicidal activity against LAMAM found” value in the test with LAMAM (Ia18 12.5 g/ha a.s.) worked out at 80. The “herbicidal activity against SETFA found” value in the test with SETFA (Ia18 6.25 g/ha a.s.) was 70. Besides, in the test on ECHCG (Ia18 6.25 g/ha a.s.), the “herbicidal activity against ECHCG found” value came to 30. Also, the “herbicidal activity against DIGSA found” value in the test with DIGSA (Ia18 6.25 g/ha a.s.) is recorded as 20. Also, the “herbicidal activity against BRAPL found” value with BRAPL (Ia18 6.25 g/ha a.s.) is reported as 25. Further, the “herbicidal activity against ABUTH found” value in the test on ABUTH (Ia18 12.5 g/ha a.s.) amounted to 55. Moreover, the “herbicidal activity against PANDI found” value in the test with PANDI (Ia18 12.5 g/ha a.s.) worked out at 70; with PANDI (Ia18 25 g/ha a.s.) it was 95.
